Laboratory results: patent US11407736B2 (priority 2019, dated 2022)
Where two headings read alike, the source gives them in different places.

Experiments:
L929 cells = test: L929 cell necroptosis assay (TNFa + zVAD, CellTiter-Glo); format: cell-based, murine
In short: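 Murine L929 cells, plated 18 h beforehand at 10K cells/well in RPMI 1640 with 10% FBS, were switched to medium containing 40 uM zVAD-fmk and given compound from 4-fold serial dilutions. Viability after 18 h of TNFa stimulation at 37° C was read by CellTiter-Glo luminescence.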

U937 cells = test: U937 cell necroptosis assay (TNFa + zVAD, CellTiter-Glo); format: cell-based, human
In short: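 Human U937 and murine L929 cells in RPMI 1640/10% FBS were pre-incubated 1 h at 37 °C with serially diluted compound plus zVAD-fmk (U937 plated with 60 uM, L929 medium with 40 uM), then stimulated with 2 ng/mL TNFa (final). Viability read by CellTiter-Glo luminescence after 18 h.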

RIPK1 = RIPK1 (Homo sapiens (Human), UniProt Q13546); test: RIPK1 ADP-Glo biochemical kinase assay
Chain of RIPK1 (Q13546 whole entry, species assumed): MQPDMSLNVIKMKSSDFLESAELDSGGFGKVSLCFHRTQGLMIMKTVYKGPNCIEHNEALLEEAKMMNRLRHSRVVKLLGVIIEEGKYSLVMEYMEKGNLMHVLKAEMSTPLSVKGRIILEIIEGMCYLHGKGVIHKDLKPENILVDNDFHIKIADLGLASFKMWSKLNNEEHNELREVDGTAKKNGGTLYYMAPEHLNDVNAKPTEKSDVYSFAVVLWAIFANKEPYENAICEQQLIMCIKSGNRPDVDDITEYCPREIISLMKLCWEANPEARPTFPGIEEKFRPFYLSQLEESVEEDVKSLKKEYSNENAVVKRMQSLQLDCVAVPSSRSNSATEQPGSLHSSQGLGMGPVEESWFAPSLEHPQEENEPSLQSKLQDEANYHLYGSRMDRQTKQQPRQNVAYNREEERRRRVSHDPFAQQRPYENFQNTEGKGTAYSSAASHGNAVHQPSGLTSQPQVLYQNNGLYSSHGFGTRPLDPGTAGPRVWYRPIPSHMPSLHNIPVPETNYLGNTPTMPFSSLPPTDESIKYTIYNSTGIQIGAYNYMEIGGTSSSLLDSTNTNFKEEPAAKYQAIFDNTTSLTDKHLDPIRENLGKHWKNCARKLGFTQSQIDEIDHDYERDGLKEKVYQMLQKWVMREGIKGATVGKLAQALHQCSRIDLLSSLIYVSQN
Method: The final reaction volume was 5.0ul.
Adding 5 μl of ADP-Glo™ terminated the reaction.

[1] = Mus musculus, L929, L929 cells, TNFa + zVAD, read-out: L929-CTG-recovery, L929, TNFa + zVAD (IC50)
[2] = Homo sapiens, U-937, U937 cells, TNFa + zVAD, read-out: U937 Zvad TNF CTG Recovery, U937, TNFa + zVAD (IC50)
[3] = read-out: RIPK1 ADP-Glo Kinase (IC50)

Row | Compound | IC50 (L929 cells; [1]) | IC50 (U937 cells; [2]) | IC50 (RIPK1; [3]) | further results
1 | CN1C(=O)[C@@H](NC(=O)c2n[nH]c(Cc3ccccc3)n2)COc2cc(C#CC3(O)COC3)ccc21 [Compound I-73, (S)-5-benzyl-N-(8-((3-hydroxyoxetan-3-yl)ethynyl)-5-methyl-4-oxo-2,3,4,5-tetrahydrobenzo[b][1,4]oxazepin-3-yl)-1H-1,2,4-triazole-3-carboxamide] | 2.7 nM | 11.7 nM | 42.9 nM | –
2 | CN1C(=O)[C@@H](NC(=O)c2ncn(Cc3ccccc3)n2)COc2ccc(CCC(=O)N3CCCC3)cc21 [Compound I-33, (S)-1-benzyl-N-(5-methyl-4-oxo-7-(3-oxo-3-(pyrrolidin-1-yl)propyl)-2,3,4,5-tetrahydrobenzo[b][1,4]oxazepin-3-yl)-1H-1,2,4-triazole-3-carboxamide] | 1230 nM | 1.5 nM | 14.5 nM | –
3 | CN1C(=O)[C@@H](NC(=O)n2cc(Cc3ccc(F)cc3)cn2)COc2ccc(C#CC3(O)COC3)cc21 [Compound I-222, (S)-4-(4-Fluorobenzyl)-N-(7-((3-hydroxyoxetan-3-yl)ethynyl)-5-methyl-4-oxo-2,3,4,5-tetrahydrobenzo[b][1,4]oxazepin-3-yl)-1H-pyrazole-1-carboxamide] | 62.5 nM | 1.4 nM | 16.6 nM | –
4 | CN1C(=O)[C@@H](NC(=O)c2cc(Oc3ccccc3)ccn2)COc2ccc(C#CC(C)(C)COC(=O)CCC(=O)O)cc21 [Compound I-144, (S)-4-((2,2-dimethyl-4-(5-methyl-4-oxo-3-(4-phenoxypicolinamido)-2,3,4,5-tetrahydrobenzo[b][1,4]oxazepin-7-yl)but-3-yn-1-yl)oxy)-4-oxobutanoic acid] | 156 nM | 1.2 nM | 22 nM | –
5 | CN1C(=O)[C@@H](NC(=O)c2cc(Oc3ccccc3)ccn2)COc2ccc(C#CCN3CCOCC3)cc21 [Compound I-117, (S)—N-(5-methyl-7-(3-morpholinoprop-1-yn-1-yl)-4-oxo-2,3,4,5-tetrahydrobenzo[b][1,4]oxazepin-3-yl)-4-phenoxypicolinamide] | 11.2 nM | 0.2 nM | 31.6 nM | –
6 | CN1C(=O)[C@@H](NC(=O)c2cc(Oc3ccccc3)ccn2)COc2cc(C#Cc3ccccn3)ccc21 [II-16, (S)—N-(5-methyl-4-oxo-8-(pyridin-2-ylethynyl)-2,3,4,5-tetrahydrobenzo[b][1,4]oxazepin-3-yl)-4-phenoxypicolinamide] | 2120 nM | 3.4 nM | 45.2 nM | –
7 | CC(=O)N1CCC(O)(C#Cc2ccc3c(c2)N(C)C(=O)[C@@H](NC(=O)c2cc(Oc4ccc(F)cc4)ccn2)CO3)CC1 [Compound I-134, (S)—N-(7-((l-acetyl-4-hydroxypiperidin-4-yl)ethynyl)-5-methyl-4-oxo-2,3,4,5-tetrahydrobenzo[b][1,4]oxazepin-3-yl)-4-(4-fluorophenoxy)picolinamide] | 608 nM | 27.4 nM | 52.8 nM | –
8 | COC(=O)C(C)(C)C#Cc1ccc2c(c1)N(C)C(=O)[C@@H](NC(=O)c1n[nH]c(Cc3ccccc3)n1)CO2 [Compound I-76, methyl (S)-4-(3-(5-benzyl-1H-1,2,4-triazole-3-carboxamido)-5-methyl-4-oxo-2,3,4,5-tetrahydrobenzo[b][1,4]oxazepin-7-yl)-2,2-dimethylbut-3-ynoate] | 2.4 nM | 18.1 nM | 44.9 nM | –
9 | CN1C(=O)[C@@H](NC(=O)n2cc(Cc3ccccc3)cn2)COc2ccc(C#CC3(O)COC3)cc21 [Compound I-216, (S)-4-Benzyl-N-(7-((3-hydroxyoxetan-3-yl)ethynyl)-5-methyl-4-oxo-2,3,4,5-tetrahydrobenzo[b][1,4]oxazepin-3-yl)-1H-pyrazole-1-carboxamide] | – | – | 18.8 nM | IC50 (L929 cells; Mus musculus, L929, read-out: L929-CTG-recovery, L929, TNFa + zVAD (IC50), L929 cells, TNFa + zVAD): 28.5 nM; IC50 (U937 cells; Homo sapiens, U-937, read-out: U937 Zvad TNF CTG Recovery, U937, TNFa + zVAD (IC50), U937 cells, TNFa + zVAD): 0.5 nM
10 | CN1C(=O)[C@@H](NC(=O)c2cc(OC3CCCC3)ccn2)COc2ccc(C#CC3(O)COC3)cc21 [Compound I-157, (S)-4-(cyclopentyloxy)-N-(7-((3-hydroxyoxetan-3-yl)ethynyl)-5-methyl-4-oxo-2,3,4,5-tetrahydrobenzo[b][1,4]oxazepin-3-yl)picolinamide] | 5160 nM | 25.5 nM | 31.6 nM | –
11 | CCOC(=O)CCc1ccc2c(c1)N(C)C(=O)[C@@H](NC(=O)c1ncn(Cc3c(Cl)cccc3Cl)n1)CO2 [Compound I-8, Ethyl (S)-3-(3-(1-(2,6-dichlorobenzyl)-1H-1,2,4-triazole-3-carboxamido)-5-methyl-4-oxo-2,3,4,5-tetrahydrobenzo[b][1,4]oxazepin-7-yl)propanoate] | 9.2 nM | 1.4 nM | 52.9 nM | –
12 | CN1C(=O)[C@@H](NC(=O)c2cc(Oc3ccccc3)ccn2)COc2ccc(C#CC3(O)CCCC3)cc21 [Compound I-98, (S)—N-(7-((1-hydroxycyclopentyl)ethynyl)-5-methyl-4-oxo-2,3,4,5-tetrahydrobenzo[b][1,4]oxazepin-3-yl)-4-phenoxypicolinamide] | 36.8 nM | 1.6 nM | – | IC50 (RIPK1): 29.6 nM
13 | CN[C@@H](C)C(=O)OC1(C#Cc2ccc3c(c2)N(C)C(=O)[C@@H](NC(=O)c2cc(Oc4ccccc4)ccn2)CO3)COC1 [Compound I-193] | – | – | 55.3 nM | IC50 (L929 cells; L929 cells, TNFa + zVAD, read-out: L929-CTG-recovery, L929, TNFa + zVAD (IC50)): 7060 nM; IC50 (U937 cells; U937 cells, TNFa + zVAD, read-out: U937 Zvad TNF CTG Recovery, U937, TNFa + zVAD (IC50)): 361 nM
14 | CN1C(=O)[C@@H](NC(=O)c2cc(Oc3cccc(C#N)c3)ccn2)COc2cc(C#CC(C)(C)O)ccc21 [II-21, (S)-4-(3-cyanophenoxy)-N-(8-(3-hydroxy-3-methylbut-1-yn-1-yl)-5-methyl-4-oxo-2,3,4,5-tetrahydrobenzo[b][1,4]oxazepin-3-yl)picolinamide] | 3440 nM | 14.3 nM | 40.9 nM | –
15 | CN1C(=O)[C@@H](NC(=O)c2ncn(Cc3ccccc3F)n2)COc2ccc(CCC(=O)Nc3ccc4cn[nH]c4c3)cc21 [Compound I-7, (S)—N-(7-(3-((1H-indazol-6-yl)amino)-3-oxopropyl)-5-methyl-4-oxo-2,3,4,5-tetrahydrobenzo[b][1,4]oxazepin-3-yl)-1-(2-fluorobenzyl)-1H-1,2,4-triazole-3-carboxamide] | 1960 nM | 0.9 nM | 21 nM | –
16 | CC(C)CCc1ccc2c(c1)N(C)C(=O)[C@@H](NC(=O)c1cc(Oc3ccccc3)ccn1)CO2 [Compound I-108, (S)—N-(7-isopentyl-5-methyl-4-oxo-2,3,4,5-tetrahydrobenzo[b][1,4]oxazepin-3-yl)-4-phenoxypicolinamide] | 2310 nM | 8.8 nM | 314 nM | –
17 | CN1C(=O)[C@@H](NC(=O)c2ncn(Cc3ccccc3)n2)COc2ccc(C#CC3(O)CCC3)cc21 [Compound I-50, (S)-1-benzyl-N-(7-((1-hydroxycyclobutyl)ethynyl)-5-methyl-4-oxo-2,3,4,5-tetrahydrobenzo[b][1,4]oxazepin-3-yl)-1H-1,2,4-triazole-3-carboxamide] | – | 1.1 nM | 23.4 nM | IC50 (L929 cells; Mus musculus, L929 cells, TNFa + zVAD, read-out: L929-CTG-recovery, L929, TNFa + zVAD (IC50)): 0.3 nM
18 | CN1C(=O)[C@@H](NC(=O)c2ncn(Cc3ccccc3)n2)COc2ccc(C#CCCOc3ccc4cccnc4c3)cc21 [Compound I-42, (S)-1-benzyl-N-(5-methyl-4-oxo-7-(4-(quinolin-7-yloxy)but-1-yn-1-yl)-2,3,4,5-tetrahydrobenzo[b][1,4]oxazepin-3-yl)-1H-1,2,4-triazole-3-carboxamide] | 1.2 nM | 3.3 nM | 47.7 nM | –
